Laboratory results from patent publication US20060035925A1, “SUBSTITUTED 4H-CHROMENES AND ANALOGS AS ACTIVATORS OF CASPASES AND INDUCERS OF APOPTOSIS AND THE USE THEREOF” (Cytovia, Inc., priority 1999, published 2006).
Like-named read-outs stand apart in the source and are kept apart here.

Key:
[1] = test system: Human breast cancer cell line ZR-75-1; assay: Caspase cascade activation assay (N-(Ac-DEVD)-N'-ethoxycarbonyl-R110 fluorogenic substrate) in ZR-75-1 cells; format: cell-based; conditions: ZR-75-1 cells; for EC50: 24 h incubation, sigmoidal dose-response, read-out: Caspase potency EC50 (nM) ZR-75-1; for Caspase activity (Ratio) ZR-75-1: 24 h incubation with compound, ratio of net RFU (T=3 h) of test compound to control
Method: (§1) Human breast cancer cell lines T-47D and ZR-75-1 were grown according to media component mixtures designated by American Type Culture Collection +10% FCS (Invitrogen Corporation), in a 5% CO2-95% humidity incubator at 37° C. T-47D and ZR-75-1 cells were maintained at a cell density between 30 and 80% confluency at a cell density of 0.1 to 0.6×10^6 cells/ml. Cells were harvested at 600×g and resuspended at 0.65×10^6 cells/mL into appropriate media +10% FCS. An aliquot of 45 μl of cells was added to a well of a 96-well microtiter plate containing 5 μl of a 10% DMSO in RPMI-1640 media solution containing 0.16 to 10 μM of 2-amino-3-cyano-4-(3-bromo-4,5-dimethoxyphenyl)-4H-indolo[7,6-b]pyran (Example 42) or other test compound (0.016 to 1 μM final). An aliquot of 45 μl of cells was added to a well of a 96-well microtiter plate containing 5 μl of a 10% DMSO in RPMI-1640 media solution without test compound as the control sample. The samples were mixed by agitation and then incubated at 37° C. for 24 h in a 5% CO2-95% humidity incubator. After incubation, the samples were removed from the incubator and 50 μl of a solution containing 20 μM of N-(Ac-DEVD)-N′-ethoxycarbonyl-R110 (SEQ ID NO:1) fluorogenic substrate (Cytovia, Inc.; WO99/18856), 20% sucrose (Sigma), 20 mM DTT (Sigma), 200 mM NaCl (Sigma), 40 mM Na PIPES buffer pH 7.2 (Sigma), and 500 μg/ml lysolecithin (Calbiochem) was added. The samples were mixed by agitation and incubated at room temperature. Using a fluorescent plate reader (Model 1420 Wallac Instruments), an initial reading (T=0) was made approximately 1-2 min after addition of the substrate solution, employing excitation at 485 nm and emission at 530 nm, to determine the background fluorescence of the control sample. After the 3 h incubation, the samples were read for fluorescence as above (T=3 h).
(§2) The Relative Fluorescence Unit values (RFU) were used to calculate the sample readings as follows: RFU(T=3h)−Control RFU(T=0)=Net RFU(T=3h)
(§3) The activity of caspase cascade activation was determined by the ratio of the net RFU value for 2-amino-3-cyano-4-(3-bromo-4,5-dimethoxyphenyl)-4H-indolo[7,6-b]pyran or other test compound to that of control samples. The EC50 (nM) was determined by a sigmoidal dose-response calculation (Prism 2.0, GraphPad Software Inc.).

[2] = test system: Human breast cancer cell line T-47D; assay: Caspase cascade activation assay (N-(Ac-DEVD)-N'-ethoxycarbonyl-R110 fluorogenic substrate) in T-47D cells; format: cell-based; conditions: for Caspase activity (Ratio) T-47D: 24 h incubation with compound, ratio of net RFU (T=3 h) of test compound to control; for EC50: 24 h incubation, sigmoidal dose-response, read-out: Caspase potency EC50 (nM) T-47D
Method: as §1, §2, §3

## CCNc1ccc2c(c1)OC(N)=C(C#N)C2c1cccc([N+](=O)[O-])c1 (centres unmarked) [Example 9, 2-Amino-3-cyano-7-ethylamino-4-(3-nitrophenyl)-4H-chromene]
[1]; Homo sapiens, ZR-75-1, 24 h
  EC50: 50 nM
[1]
  Caspase activity (Ratio) ZR-75-1: 12.8
[2]
  Caspase activity (Ratio) T-47D: 7.6
[2]; Homo sapiens, T47D, 24 h
  EC50: 116 nM

## COc1cc(C2C(C#N)=C(N)Oc3c2ccc2ccn(C)c32)cc(Br)c1OC (centres unmarked) [Example 77, 2-Amino-4-(3-bromo-4,5-dimethoxyphenyl)-3-cyano-9-methyl-4H-pyrrolo[3,2-h]chromene]
[1]; Homo sapiens, ZR-75-1, 24 h
  EC50: 23.9 nM
[1]
  Caspase activity (Ratio) ZR-75-1: 3.1
[2]
  Caspase activity (Ratio) T-47D: 4.2
[2]; Homo sapiens, T47D, 24 h
  EC50: 27.7 nM

## COc1cc(C2C(C#N)=C(N)Oc3c2ccc2[nH]c(=O)[nH]c32)cc(Br)c1OC (centres unmarked) [Example 80, 2-Amino-3-cyano-4-(3-bromo-4,5-dimethoxy-phenyl)-8-oxo-4,7,8,9-tetrahydroimidazo[4,5-h]chromene]
[1]
  Caspase activity (Ratio) ZR-75-1: 7.5
  EC50: 21.5 nM
[2]
  Caspase activity (Ratio) T-47D: 8.8
  EC50: 50.5 nM

## COc1ccc2c(c1)OC(N)=C(C#N)C2c1cccc(Br)c1 (centres unmarked) [Example 6, 2-Amino-3-cyano-7-methoxy-4-(3-bromophenyl)-4H-chromene]
[1]; Homo sapiens, ZR-75-1, 24 h
  EC50: 30 nM
[1]
  Caspase activity (Ratio) ZR-75-1: 12.8
[2]
  Caspase activity (Ratio) T-47D: 6.8
[2]; Homo sapiens, T47D, 24 h
  EC50: 54 nM

## COc1ccc2c(c1)OC(N)=C(C#N)C2c1ccccc1 (centres unmarked) [Example 26, 2-Amino-3-cyano-7-methoxy-4-phenyl-4H-chromene]
[1]; Homo sapiens, ZR-75-1, 24 h
  EC50: 82 nM
[1]
  Caspase activity (Ratio) ZR-75-1: 6.4
[2]
  Caspase activity (Ratio) T-47D: 3.5
[2]; Homo sapiens, T47D, 24 h
  EC50: 140 nM

## COc1cncc(C2C(C#N)=C(N)Oc3cc(OC)ccc32)c1 (centres unmarked) [Example 40, 2-Amino-3-cyano-7-methoxy-4-(5-methoxy-pyridin-3-yl)-4H-chromene]
[1]; Homo sapiens, ZR-75-1, 24 h
  EC50: 16.9 nM
[1]
  Caspase activity (Ratio) ZR-75-1: 8.9
[2]
  Caspase activity (Ratio) T-47D: 7.9
[2]; Homo sapiens, T47D, 24 h
  EC50: 27.4 nM

## COc1ccc2c(c1)OC(N)=C(C#N)C2c1cccc(F)c1 (centres unmarked) [Example 2N, 2-Amino-3-cyano-7-methoxy-4-(3-fluorophenyl)-4H-chromene]
[1]; Homo sapiens, ZR-75-1, 24 h
  EC50: 47 nM
[1]
  Caspase activity (Ratio) ZR-75-1: 6.8
[2]
  Caspase activity (Ratio) T-47D: 4.2
[2]; Homo sapiens, T47D, 24 h
  EC50: 57 nM

## COc1cccc(C2C(C#N)=C(N)Oc3cc(OC)ccc32)c1 (centres unmarked) [Example 4, 2-Amino-3-cyano-7-methoxy-4-(3-methoxyphenyl)-4H-chromene]
[1]; Homo sapiens, ZR-75-1, 24 h
  EC50: 33 nM
[1]
  Caspase activity (Ratio) ZR-75-1: 5.6
[2]
  Caspase activity (Ratio) T-47D: 8.1
[2]; Homo sapiens, T47D, 24 h
  EC50: 37 nM

## N#CC1=C(N)OC2C(=CC=C3C=CN=C32)C1c1cccc(C#N)c1 (centres unmarked) [Example 53, 2-Amino-3-cyano-4-(3-cyano-phenyl)-4H-indolo[7,6-b]pyran]
[1]; Homo sapiens, ZR-75-1, 24 h
  EC50: 26.4 nM
[1]
  Caspase activity (Ratio) ZR-75-1: 7.0
[2]
  Caspase activity (Ratio) T-47D: 10.1
[2]; Homo sapiens, T47D, 24 h
  EC50: 79.7 nM

## Cc1cccc(C2C(C#N)=C(N)Oc3cc(N)ccc32)c1 (centres unmarked) [Example 23, 2,7-Diamino-3-cyano-4-(3-methylphenyl)-4H-chromene]
[1]; Homo sapiens, ZR-75-1, 24 h
  EC50: 102 nM
[1]
  Caspase activity (Ratio) ZR-75-1: 5.2
[2]
  Caspase activity (Ratio) T-47D: 4.6
[2]; Homo sapiens, T47D, 24 h
  EC50: 146 nM

## N#CC1=C(N)OC2C3=CC=NC3=CC=C2C1c1cccc(F)c1 (centres unmarked) [Example 2L, 2-Amino-3-cyano-4-(3-fluorophenyl)-4H-indolo[4,5-b]pyran]
[1]; Homo sapiens, ZR-75-1, 24 h
  EC50: 41 nM
[1]
  Caspase activity (Ratio) ZR-75-1: 7.4
[2]
  Caspase activity (Ratio) T-47D: 4.5
[2]; Homo sapiens, T47D, 24 h
  EC50: 63 nM

## N#CC1=C(N)Oc2cc(N)ccc2C1c1cc(Cl)cc(Cl)c1 (centres unmarked) [Example 2D, 2-Amino-3-cyano-7-amino-4-(3,5-dichlorophenyl)-4H-chromene]
[1]; Homo sapiens, ZR-75-1, 24 h
  EC50: 50 nM
[1]
  Caspase activity (Ratio) ZR-75-1: 4.4
[2]
  Caspase activity (Ratio) T-47D: 4.4
[2]; Homo sapiens, T47D, 24 h
  EC50: 78 nM

## COc1cc(C2C(C#N)=C(N)Oc3c2ccc(N)c3N)cc(Br)c1OC (centres unmarked) [Example 45, 3-Cyano-2,7,8-triamino-4-(3-bromo-4,5-dimethoxyphenyl)-4H-chromene]
[1]; Homo sapiens, ZR-75-1, 24 h
  EC50: 35.4 nM
[1]
  Caspase activity (Ratio) ZR-75-1: 11.9
[2]
  Caspase activity (Ratio) T-47D: 6.0
[2]; Homo sapiens, T47D, 24 h
  EC50: 41.8 nM

## COc1cc(C2C(C#N)=C(N)Oc3cc(N)ccc32)cc(Br)c1O (centres unmarked) [Example 49, 3-Cyano-4-(3-bromo-4-hydroxy-5-methoxyphenyl)-2,7-diamino-4H-chromene]
[1]; Homo sapiens, ZR-75-1, 24 h
  EC50: 35.9 nM
[1]
  Caspase activity (Ratio) ZR-75-1: 5.8
[2]
  Caspase activity (Ratio) T-47D: 10.1
[2]; Homo sapiens, T47D, 24 h
  EC50: 67.7 nM

## C1CCNCC1.C1CCNCC1.COc1cc(C2C(C#N)=C(N)Oc3c2ccc2[nH]ccc32)cc(Br)c1OP(=O)(O)O (centres unmarked) [Example 69, 2-Amino-3-cyano-4-(3-bromo-4-phosphoric acid-dipiperidine salt-5-methoxyphenyl)-4H-indolo[4,5-b]pyran]
[1]
  Caspase activity (Ratio) ZR-75-1: 5.6
  EC50: 284 nM
[2]
  Caspase activity (Ratio) T-47D: 3.5
  EC50: 582 nM

## COc1ccc2c(c1)OC(N)=C(C#N)C2C1CC=CCC1 (centres unmarked) [Example 28, 2-Amino-3-cyano-7-methoxy-4-(1,2,3,6-tetrahydrophenyl)-4H-chromene]
[1]; Homo sapiens, ZR-75-1, 24 h
  EC50: 154 nM
[1]
  Caspase activity (Ratio) ZR-75-1: 5.2
[2]
  Caspase activity (Ratio) T-47D: 3.4
[2]; Homo sapiens, T47D, 24 h
  EC50: 158 nM

## COc1cc(C2C(C#N)=C(N)Oc3cc(N4CCOCC4)ccc32)cc(Br)c1OC (centres unmarked) [Example 66C, 2-Amino-3-cyano-7-N-morpholine-4-(3-bromo-4,5-dimethoxyphenyl)-4H-chromene]
[1]
  Caspase activity (Ratio) ZR-75-1: 7.4
  EC50: 86.8 nM
[2]
  Caspase activity (Ratio) T-47D: 10.4
  EC50: 166 nM

## N#CC1=C(N)OC2C3=CC=NC3=CC=C2C1c1cncc(Br)c1 (centres unmarked) [Example 36, 2-Amino-3-cyano-4-(5-bromo-3-pyridyl)-4H-indolo[4,5-b]pyran]
[1]; Homo sapiens, ZR-75-1, 24 h
  EC50: 3 nM
[1]
  Caspase activity (Ratio) ZR-75-1: 2.9
[2]
  Caspase activity (Ratio) T-47D: 5.9
[2]; Homo sapiens, T47D, 24 h
  EC50: 10 nM

## COc1cc(C2C(C#N)=C(N)Oc3cc(O)ccc32)cc(Br)c1OC (centres unmarked) [Example 1, 2-Amino-3-cyano-7-hydroxy-4-(3-bromo-4,5-dimethoxyphenyl)-4H-chromene]
[1]; Homo sapiens, ZR-75-1, 24 h
  EC50: 94 nM
[1]
  Caspase activity (Ratio) ZR-75-1: 10.8
[2]
  Caspase activity (Ratio) T-47D: 5.1
[2]; Homo sapiens, T47D, 24 h
  EC50: 153 nM

## CCNc1ccc2c(c1)OC(N)=C(C#N)C2c1cccc(Cl)c1 (centres unmarked) [Example 8, 2-Amino-3-cyano-7-ethylamino-4-(3-chlorophenyl)-4H-chromene]
[1]; Homo sapiens, ZR-75-1, 24 h
  EC50: 62 nM
[1]
  Caspase activity (Ratio) ZR-75-1: 10.1
[2]
  Caspase activity (Ratio) T-47D: 8.5
[2]; Homo sapiens, T47D, 24 h
  EC50: 126 nM

## COc1cc(C2C(C#N)=C(N)Oc3cc(N(C)C)ccc32)cc(Br)c1O (centres unmarked) [Example 48, 2-Amino-4-(3-bromo-4-hydroxy-5-methoxyphenyl)-3-cyano-7-dimethylamino-4H-chromene]
[1]; Homo sapiens, ZR-75-1, 24 h
  EC50: 23.8 nM
[1]
  Caspase activity (Ratio) ZR-75-1: 6.1
[2]
  Caspase activity (Ratio) T-47D: 10.5
[2]; Homo sapiens, T47D, 24 h
  EC50: 36.8 nM

## COc1ccc2c(c1)OC(N)=C(C#N)C2c1cc(F)cc(F)c1 (centres unmarked) [Example 2J, 2-Amino-3-cyano-7-methoxy-4-(3,5-difluorophenyl)-4H-chromene]
[1]; Homo sapiens, ZR-75-1, 24 h
  EC50: 21 nM
[1]
  Caspase activity (Ratio) ZR-75-1: 7.4
[2]
  Caspase activity (Ratio) T-47D: 5.0
[2]; Homo sapiens, T47D, 24 h
  EC50: 34 nM

## COc1cccc(C2C(C#N)=C(N)Sc3cc(OC)ccc32)c1 (centres unmarked) [Example 70, 2-Amino-3-cyano-7-methoxy-4-(3-methoxyphenyl)-4H-thiochromene]
[1]; Homo sapiens, ZR-75-1, 24 h
  EC50: 45.3 nM
[1]
  Caspase activity (Ratio) ZR-75-1: 6.6
[2]
  Caspase activity (Ratio) T-47D: 9.1
[2]; Homo sapiens, T47D, 24 h
  EC50: 90.7 nM

## CCNc1ccc2c(c1)OC(N)=C(C#N)C2c1cc(Br)c(OC)c(OC)c1 (centres unmarked) [Example 2A, 2-Amino-3-cyano-7-ethylamino-4-(3-bromo-4,5-dimethoxyphenyl)-4H-chromene]
[1]; Homo sapiens, ZR-75-1, 24 h
  EC50: 14 nM
[1]
  Caspase activity (Ratio) ZR-75-1: 4.1
[2]
  Caspase activity (Ratio) T-47D: 4.0
[2]; Homo sapiens, T47D, 24 h
  EC50: 72 nM

## COc1cc(C2C(C#N)=C(N)Oc3c2ccc(O)c3N)cc(Br)c1OC (centres unmarked) [Example 2I, 2-Amino-3-cyano-7-hydroxy-8-amino-4-(3-bromo-4,5-dimethoxyphenyl)-4H-chromene]
[2]
  Caspase activity (Ratio) T-47D: 6.2
[2]; Homo sapiens, T47D, 24 h
  EC50: 50.4 nM
